Source: patent US5047397A, “Linear analogs of atrial natriuretic peptides” (California Biotechnology Inc., priority 1988, dated 1991)
Where a SMILES comes first, the peptide text is derived from it. [ ]: non-standard residue; d: D form. The star is where a group is joined. Propanoyl(3,3-Ph2) = O=C(CC(c1ccccc1)c1ccccc1)*; Acetyl(2-naphthyloxy) = O=C(COc1ccc2ccccc2c1)*; Acetyl(2-naphthyl) = O=C(Cc1ccc2ccccc2c1)*; Cyclohexylacetyl = O=C(CC1CCCCC1)*; Ahx = NCCCCCC(=O)O; GABA = NCCCC(=O)O; NHiBu = CC(C)CN*

Target: T1, specific ANP receptor sites on BASM or BAE cells (Bos taurus, UniProt P10730)
T1 construct: specific receptor sites on BASM or BAE cells; endogenous in cells; host or cells: cultured BASM and BAE cells
T1 sequence (P10730 42-537): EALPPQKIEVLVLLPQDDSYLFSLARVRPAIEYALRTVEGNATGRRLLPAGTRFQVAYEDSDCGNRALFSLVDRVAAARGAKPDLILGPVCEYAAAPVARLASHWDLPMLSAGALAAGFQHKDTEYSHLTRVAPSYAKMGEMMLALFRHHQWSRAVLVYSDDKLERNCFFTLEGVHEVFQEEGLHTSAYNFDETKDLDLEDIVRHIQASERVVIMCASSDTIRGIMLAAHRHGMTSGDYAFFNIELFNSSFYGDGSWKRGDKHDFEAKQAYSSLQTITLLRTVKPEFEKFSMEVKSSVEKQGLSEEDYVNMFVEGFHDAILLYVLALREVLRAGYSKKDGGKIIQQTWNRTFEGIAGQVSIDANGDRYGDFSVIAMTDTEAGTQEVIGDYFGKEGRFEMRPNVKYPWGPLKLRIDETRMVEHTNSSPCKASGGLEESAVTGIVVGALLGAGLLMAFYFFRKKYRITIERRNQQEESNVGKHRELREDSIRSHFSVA
Experiment: Competitive displacement receptor binding of (125I)-rANP(126-150) on cultured cells
Parameters: species or system bovine
Conditions: concentration of unlabeled peptide displacing 50% of maximal binding of 0.5 nM (125I)-rANP(126-150); BASM or BAE cells
From the text: Analogous "competitive displacement" receptor binding assays are considered commonplace in the art for examining specific ligand-receptor interactions.
Assuming these ANP analogs act at one or more ANP receptor sites, then increased receptor affinity should reflect increased biological potency.

Row | SMILES | Ki(app) [nM]
1 | CC[C@H](C)[C@H](NC(=O)[C@H](CCCNC(=N)N)NC(=O)[C@H](CC(=O)O)NC(=O)[C@@H](NC(=O)[C@H](CCCNC(=N)N)NC(=O)CCCNC(=O)Cc1ccc2ccccc2c1)[C@@H](C)CC)C(N)=O [AP327, (2-NA)--NH(CH2)3 CO--R--I-- D--R--I--NH2] ({Acetyl(2-naphthyl)-GABA}-RIDRI-NH2) | 184
2 | CC[C@H](C)[C@H](NC(=O)[C@H](CCCNC(=N)N)NC(=O)[C@H](CC(=O)O)NC(=O)[C@@H](NC(=O)[C@H](CCCNC(=N)N)NC(=O)CCCCCNC(=O)Cc1ccc2ccccc2c1)[C@@H](C)CC)C(N)=O [AP329, (2-NA)--NH(CH2)5 CO--R--I--D--R--I--NH2] ({Acetyl(2-naphthyl)-Ahx}-RIDRI-NH2) | 147.78
3 | CC[C@H](C)[C@H](NC(=O)[C@H](CCCNC(=N)N)NC(=O)[C@H](CC(=O)O)NC(=O)[C@@H](NC(=O)[C@H](CCCNC(=N)N)NC(=O)CNC(=O)CNC(=O)CC(c1ccccc1)c1ccccc1)[C@@H](C)CC)C(=O)NCC(=O)N[C@@H](C)C(N)=O [AP331, (3-DPP)--G--G--R--I--D--R--I--G--A--NH2] ({Propanoyl(3,3-Ph2)}-GGRIDRIGA-NH2) | 6.15
4 | CC[C@H](C)[C@H](NC(=O)[C@H](CCCNC(=N)N)NC(=O)CNC(=O)CNC(=O)Cc1ccc2ccccc2c1)C(=O)N[C@@H](CC(=O)O)C(=O)N[C@@H](CCCNC(=N)N)C(=O)N[C@@H](CC(C)C)C(N)=O [AP332, (2-NA)--G--G--R--I--D--R--L--NH2] ({Acetyl(2-naphthyl)}-GGRIDRL-NH2) | 44.2
5 | CC[C@H](C)[C@H](NC(=O)[C@H](CCCNC(=N)N)NC(=O)[C@H](CC(=O)O)NC(=O)[C@@H](NC(=O)[C@H](C)NC(=O)CNC(=O)CNC(=O)Cc1ccc2ccccc2c1)[C@@H](C)CC)C(N)=O [AP338, (2-NA)--G--G--A--I--D--R--I--NH2] ({Acetyl(2-naphthyl)}-GGAIDRI-NH2) | 82.6
6 | CC[C@H](C)[C@H](NC(=O)[C@H](CCC(N)=O)NC(=O)[C@H](CC(=O)O)NC(=O)[C@@H](NC(=O)[C@H](CCCNC(=N)N)NC(=O)CNC(=O)CNC(=O)Cc1ccc2ccccc2c1)[C@@H](C)CC)C(N)=O [AP351, (2-NA)--G--G--R--I--D--Q--I--NH2] ({Acetyl(2-naphthyl)}-GGRIDQI-NH2) | 20.0
7 | CC[C@H](C)[C@H](NC(=O)[C@H](CCCNC(=N)N)NC(=O)CNC(=O)CNC(=O)COc1ccc2ccccc2c1)C(=O)N[C@@H](CC(=O)O)C(=O)N[C@@H](CCCNC(=N)N)C(=O)NCC(C)C [AP509] ({Acetyl(2-naphthyloxy)}-GGRIDR-NHiBu) | 120.0

Next, values leading:

Row | Ki(app) [nM] | SMILES
8 | 19.87 | CCNC(=O)[C@@H](NC(=O)[C@H](CCCNC(=N)N)NC(=O)[C@H](CC(=O)O)NC(=O)[C@@H](NC(=O)[C@H](CCCNC(=N)N)NC(=O)CNC(=O)CNC(=O)Cc1ccc2ccccc2c1)[C@@H](C)CC)[C@@H](C)CC [AP328, (2-NA)--G--G--R--I--D--R--I--NH(ethyl)] ({Acetyl(2-naphthyl)}-GGRIDRI-NHEt)
9 | 16.4 | CC[C@H](C)[C@H](NC(=O)[C@H](CCCNC(=N)N)NC(=O)[C@H](CC(=O)O)NC(=O)[C@@H](NC(=O)[C@H](CCCNC(=N)N)NC(=O)CNC(=O)[C@@H](CO)NC(=O)Cc1ccc2ccccc2c1)[C@@H](C)CC)C(N)=O [AP330, (2-NA)--S^ --G--R--I--D--R--I--NH2] ({Acetyl(2-naphthyl)}-[dS]GRIDRI-NH2)
10 | 106.4 | CC[C@H](C)[C@H](NC(=O)[C@H](CCCNC(=N)N)NC(=O)CNC(=O)CNC(=O)Cc1ccc2ccccc2c1)C(=O)N[C@@H](CC(=O)O)C(=O)N[C@@H](CCCNC(=N)N)C(=O)N[C@H](C(N)=O)C(C)C [AP333, (2-NA)--G--G--R--I--D--R--V--NH2] ({Acetyl(2-naphthyl)}-GGRIDRV-NH2)
11 | 92.8 | CC[C@H](C)[C@H](NC(=O)[C@H](CCCNC(=N)N)NC(=O)[C@H](CC(=O)O)NC(=O)[C@@H](NC(=O)[C@H](CCCNC(=N)N)NC(=O)CNC(=O)CNC(=O)CC1CCCCC1)[C@@H](C)CC)C(N)=O [AP334, (CHA)--G--G--R--I--D--R--I--NH2] (Cyclohexylacetyl-GGRIDRI-NH2)
